Measured values: ChEMBL document CHEMBL1201862, “PubChem BioAssay data set” (2004)
Active and inactive are the calls of the source.

Assays:
[1] = biological target: Nonstructural protein 1 (Influenza A virus, UniProt Q194T2); type: functional, Influenza A virus (A/California/07/2009(H1N1))
[2] = biological target: T1, Fatty acid synthase (Homo sapiens, UniProt P49327); test: FAS thioesterase domain inhibitors, dose response, biochemical, endpoint fluorescence intensity, uHTS hits (AID 624327); type: functional;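 further: fluorescence from hydrolysis of an O-methyl fluorescein acyl ester substrate by the enzyme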
[3] = biological target: Genome polyprotein (dengue virus type 2, UniProt P29990); test: Dengue-2 NS5 methyltransferase inhibitors, primary screen, biochemical, confirmation dose response (AID 588689); type: functional
[4] = biological target: T1, Fatty acid synthase; test: FAS thioesterase domain inhibitors, dose response, biochemical, kinetic fluorescence intensity (AID 624326); type: functional;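 further: rate of fluorescence rise from hydrolysis of a fluorogenic O-methyl fluorescein ester substrate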
[5] = test system: Vero; test: Vero cell cytotoxicity, cytotoxicity control for flavivirus capping enzyme inhibitors (AID 588742); type: functional; conditions: Chlorocebus sabaeus
[6] = biological target: T2, Short transient receptor potential channel 4 (Mus musculus, UniProt Q9QUQ5); test: mouse TRPC4 channel activators, dose response, cell-based, HEK293 TRPC4/mu-opioid, Fluo-4 calcium (AID 434937); type: functional
T2 sequence (Q9QUQ5 whole entry): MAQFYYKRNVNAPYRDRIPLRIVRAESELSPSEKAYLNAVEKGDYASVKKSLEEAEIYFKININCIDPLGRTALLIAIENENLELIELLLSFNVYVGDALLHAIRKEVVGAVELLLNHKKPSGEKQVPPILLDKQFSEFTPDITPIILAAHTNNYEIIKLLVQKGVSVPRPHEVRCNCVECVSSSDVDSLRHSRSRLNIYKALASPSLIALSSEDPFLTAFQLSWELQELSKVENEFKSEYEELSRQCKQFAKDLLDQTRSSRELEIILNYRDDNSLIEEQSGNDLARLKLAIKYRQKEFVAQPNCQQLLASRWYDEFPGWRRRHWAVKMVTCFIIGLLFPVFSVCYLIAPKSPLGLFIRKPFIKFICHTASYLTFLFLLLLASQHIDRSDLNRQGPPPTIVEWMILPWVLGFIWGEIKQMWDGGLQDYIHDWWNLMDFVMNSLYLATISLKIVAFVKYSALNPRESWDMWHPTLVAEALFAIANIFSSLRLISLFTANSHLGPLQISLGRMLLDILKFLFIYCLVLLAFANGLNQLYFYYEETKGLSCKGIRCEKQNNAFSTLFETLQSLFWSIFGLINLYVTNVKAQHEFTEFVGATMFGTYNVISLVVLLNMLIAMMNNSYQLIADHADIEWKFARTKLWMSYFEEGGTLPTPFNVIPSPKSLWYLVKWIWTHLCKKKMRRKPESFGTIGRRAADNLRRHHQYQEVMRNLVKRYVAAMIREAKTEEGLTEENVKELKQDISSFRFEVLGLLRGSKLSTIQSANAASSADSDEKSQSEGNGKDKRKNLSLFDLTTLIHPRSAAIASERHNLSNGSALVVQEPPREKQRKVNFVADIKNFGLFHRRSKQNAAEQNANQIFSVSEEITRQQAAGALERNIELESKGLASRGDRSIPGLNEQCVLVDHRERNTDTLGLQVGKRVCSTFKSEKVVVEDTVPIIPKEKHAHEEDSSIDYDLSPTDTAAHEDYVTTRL

[7] = biological target: T2, Short transient receptor potential channel 4; test: mouse TRPC4 channel inhibitors, dose response, cell-based, HEK293 TRPC4/mu-opioid, Fluo-4 calcium (AID 434942); type: functional;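 further: potency of inhibitors blocking the TRPC4 calcium response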
[8] = cytotoxicity toward DRD oncogenic fibroblasts, dose response, cell-based, non-viral oncogenic, luminescence (AID 1934); type: functional; conditions: Homo sapiens
[9] = test system: BJ; test: cytotoxicity toward BJ-TERT fibroblasts, dose response, cell-based, RAS-independent, luminescence (AID 1933); type: functional; conditions: Homo sapiens
[10] = cytotoxicity in HEK-293T cells, dose response, cytotoxicity control for TCR NF-kB inhibitor project, luminescence, T-cell screen hits (AID 489026); type: functional, cell-based;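 further: cells exposed to compound about 14 hours before the viability readout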
[11] = test system: BJ; test: cytotoxicity toward BJ-TERT-LT-ST fibroblasts, dose response, cell-based, RAS-independent, luminescence (AID 1935); type: functional; conditions: Homo sapiens;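 further: BJ fibroblasts immortalized with TERT plus LT and ST oncogenes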
[12] = test system: BJ; test: cells; type: functional, cell-based; conditions: Homo sapiens
[13] = Luminescence Cell-Based Dose Retest to Confirm Inhibitors of Cancer Stem Cells. [Related pubchem assays (depositor defined):AID2717, AID2721]; type: functional, Homo sapiens; conditions: Homo sapiens
[14] = biological target: Heat shock protein HSP 90-alpha (Homo sapiens, UniProt P07900); type: functional, organism-based
[15] = test system: Vero; test: cells; type: functional; conditions: Chlorocebus sabaeus
[16] = biological target: T3, Microphthalmia-associated transcription factor (Homo sapiens, UniProt O75030); test: TRPM1 promoter luciferase signal decrease, dose response, MITF inhibitor project, cell-based, SK-MEL-5, cherry-picked, set 3 (AID 493073); type: functional
T3 sequence (O75030 whole entry): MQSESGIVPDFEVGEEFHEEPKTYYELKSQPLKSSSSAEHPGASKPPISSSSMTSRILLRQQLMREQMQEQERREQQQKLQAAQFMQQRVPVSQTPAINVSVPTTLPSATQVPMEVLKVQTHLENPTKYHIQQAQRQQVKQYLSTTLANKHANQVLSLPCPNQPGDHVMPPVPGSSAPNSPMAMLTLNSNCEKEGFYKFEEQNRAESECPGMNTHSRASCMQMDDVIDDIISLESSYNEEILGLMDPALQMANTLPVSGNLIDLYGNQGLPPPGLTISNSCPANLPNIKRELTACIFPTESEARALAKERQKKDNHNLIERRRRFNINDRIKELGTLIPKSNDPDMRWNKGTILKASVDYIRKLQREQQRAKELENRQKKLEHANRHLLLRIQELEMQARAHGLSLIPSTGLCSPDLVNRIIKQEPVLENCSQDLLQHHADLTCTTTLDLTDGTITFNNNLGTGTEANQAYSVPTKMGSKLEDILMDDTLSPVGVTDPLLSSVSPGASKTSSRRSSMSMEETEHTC

[17] = cells; type: functional
[18] = cytotoxicity toward NIH3T3 fibroblasts, dose response, counter-screen, cell-based, ATP luminescence, mouse fibroblasts (AID 2010); type: functional;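 further: cells exposed to compound for about 90 hours before reading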
[19] = inhibitors of intracellular T. cruzi replication, confirmation, NIH3T3 host cells, beta-gal luminescence (AID 2044); type: functional, cell-based;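 further: intracellular parasites grown in NIH/3T3 mouse fibroblasts as host cells; luminescent beta-galactosidase reporter signal from transgenic T. cruzi replicating inside host cells; inhibitors lower the luminescence signal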

Sequence of Nonstructural protein 1 (Q194T2 whole entry, the tested form may be a part): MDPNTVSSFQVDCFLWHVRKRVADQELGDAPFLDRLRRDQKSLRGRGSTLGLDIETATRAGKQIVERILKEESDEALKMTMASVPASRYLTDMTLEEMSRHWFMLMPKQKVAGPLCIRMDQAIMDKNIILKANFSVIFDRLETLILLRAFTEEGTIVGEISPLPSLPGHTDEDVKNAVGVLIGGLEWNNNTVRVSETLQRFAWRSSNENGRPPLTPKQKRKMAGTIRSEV
T1 sequence (P49327 whole entry, the tested form may be a part): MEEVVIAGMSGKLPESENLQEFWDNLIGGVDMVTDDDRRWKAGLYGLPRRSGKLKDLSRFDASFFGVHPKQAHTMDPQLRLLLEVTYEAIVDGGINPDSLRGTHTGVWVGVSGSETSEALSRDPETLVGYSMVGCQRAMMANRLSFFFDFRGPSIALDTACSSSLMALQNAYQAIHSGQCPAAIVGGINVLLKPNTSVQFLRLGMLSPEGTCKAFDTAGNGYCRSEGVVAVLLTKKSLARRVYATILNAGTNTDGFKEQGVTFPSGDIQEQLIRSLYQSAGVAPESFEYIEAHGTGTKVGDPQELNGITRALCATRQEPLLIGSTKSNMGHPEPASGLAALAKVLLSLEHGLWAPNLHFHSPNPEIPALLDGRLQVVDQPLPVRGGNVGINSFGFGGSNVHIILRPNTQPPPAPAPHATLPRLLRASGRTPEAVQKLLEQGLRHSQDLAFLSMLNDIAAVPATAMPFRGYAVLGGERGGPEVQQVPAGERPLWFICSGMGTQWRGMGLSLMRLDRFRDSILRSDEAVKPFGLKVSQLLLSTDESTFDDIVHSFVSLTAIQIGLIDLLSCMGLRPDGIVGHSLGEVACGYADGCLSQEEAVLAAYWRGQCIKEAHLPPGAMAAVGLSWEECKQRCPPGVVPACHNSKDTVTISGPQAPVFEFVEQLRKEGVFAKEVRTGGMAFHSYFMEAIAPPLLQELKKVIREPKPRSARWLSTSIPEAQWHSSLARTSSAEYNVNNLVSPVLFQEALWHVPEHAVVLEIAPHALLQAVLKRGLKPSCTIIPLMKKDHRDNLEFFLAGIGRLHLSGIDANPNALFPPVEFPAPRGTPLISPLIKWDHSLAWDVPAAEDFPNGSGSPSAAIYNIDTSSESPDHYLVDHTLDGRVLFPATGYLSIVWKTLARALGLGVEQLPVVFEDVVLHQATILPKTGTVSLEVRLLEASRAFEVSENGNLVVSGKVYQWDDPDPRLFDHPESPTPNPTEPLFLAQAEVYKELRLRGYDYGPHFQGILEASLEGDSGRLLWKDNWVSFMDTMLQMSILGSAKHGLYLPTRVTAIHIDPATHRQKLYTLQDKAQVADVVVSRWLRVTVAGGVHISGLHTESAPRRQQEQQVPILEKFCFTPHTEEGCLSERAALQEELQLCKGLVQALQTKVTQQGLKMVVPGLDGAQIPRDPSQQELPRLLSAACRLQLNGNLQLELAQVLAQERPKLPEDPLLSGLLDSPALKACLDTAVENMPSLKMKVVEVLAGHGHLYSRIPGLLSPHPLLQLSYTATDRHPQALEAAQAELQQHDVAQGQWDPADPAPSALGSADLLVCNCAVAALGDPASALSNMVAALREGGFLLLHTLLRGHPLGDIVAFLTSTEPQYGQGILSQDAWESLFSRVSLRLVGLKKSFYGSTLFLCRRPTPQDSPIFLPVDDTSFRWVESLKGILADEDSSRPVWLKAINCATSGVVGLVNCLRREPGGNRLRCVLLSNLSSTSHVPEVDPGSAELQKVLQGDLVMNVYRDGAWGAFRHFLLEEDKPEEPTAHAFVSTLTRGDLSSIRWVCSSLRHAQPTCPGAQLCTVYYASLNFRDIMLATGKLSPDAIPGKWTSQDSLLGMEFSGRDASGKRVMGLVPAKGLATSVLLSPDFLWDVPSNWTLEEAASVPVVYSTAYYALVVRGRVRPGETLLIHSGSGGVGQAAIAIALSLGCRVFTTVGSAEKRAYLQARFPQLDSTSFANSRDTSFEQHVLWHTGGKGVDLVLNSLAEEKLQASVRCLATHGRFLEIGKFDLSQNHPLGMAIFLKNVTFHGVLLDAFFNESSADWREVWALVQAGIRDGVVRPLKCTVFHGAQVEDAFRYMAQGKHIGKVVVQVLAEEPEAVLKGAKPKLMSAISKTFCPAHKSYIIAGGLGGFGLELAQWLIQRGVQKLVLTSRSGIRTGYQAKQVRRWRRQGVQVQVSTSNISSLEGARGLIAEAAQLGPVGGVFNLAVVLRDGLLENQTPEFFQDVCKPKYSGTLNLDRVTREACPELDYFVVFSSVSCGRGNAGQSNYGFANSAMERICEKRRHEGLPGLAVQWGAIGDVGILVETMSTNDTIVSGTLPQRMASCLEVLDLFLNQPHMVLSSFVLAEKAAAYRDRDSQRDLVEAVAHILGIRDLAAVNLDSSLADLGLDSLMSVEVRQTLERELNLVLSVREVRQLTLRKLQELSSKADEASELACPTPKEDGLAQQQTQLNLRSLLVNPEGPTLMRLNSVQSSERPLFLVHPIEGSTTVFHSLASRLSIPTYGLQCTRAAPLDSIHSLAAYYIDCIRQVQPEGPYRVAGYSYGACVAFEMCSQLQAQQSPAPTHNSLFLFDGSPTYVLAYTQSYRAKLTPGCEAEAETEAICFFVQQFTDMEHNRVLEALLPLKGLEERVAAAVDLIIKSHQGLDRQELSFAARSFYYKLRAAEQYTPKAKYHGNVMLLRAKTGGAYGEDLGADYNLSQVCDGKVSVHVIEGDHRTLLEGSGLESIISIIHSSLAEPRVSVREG
Sequence of Genome polyprotein (P29990 2492-3391 limits assumed): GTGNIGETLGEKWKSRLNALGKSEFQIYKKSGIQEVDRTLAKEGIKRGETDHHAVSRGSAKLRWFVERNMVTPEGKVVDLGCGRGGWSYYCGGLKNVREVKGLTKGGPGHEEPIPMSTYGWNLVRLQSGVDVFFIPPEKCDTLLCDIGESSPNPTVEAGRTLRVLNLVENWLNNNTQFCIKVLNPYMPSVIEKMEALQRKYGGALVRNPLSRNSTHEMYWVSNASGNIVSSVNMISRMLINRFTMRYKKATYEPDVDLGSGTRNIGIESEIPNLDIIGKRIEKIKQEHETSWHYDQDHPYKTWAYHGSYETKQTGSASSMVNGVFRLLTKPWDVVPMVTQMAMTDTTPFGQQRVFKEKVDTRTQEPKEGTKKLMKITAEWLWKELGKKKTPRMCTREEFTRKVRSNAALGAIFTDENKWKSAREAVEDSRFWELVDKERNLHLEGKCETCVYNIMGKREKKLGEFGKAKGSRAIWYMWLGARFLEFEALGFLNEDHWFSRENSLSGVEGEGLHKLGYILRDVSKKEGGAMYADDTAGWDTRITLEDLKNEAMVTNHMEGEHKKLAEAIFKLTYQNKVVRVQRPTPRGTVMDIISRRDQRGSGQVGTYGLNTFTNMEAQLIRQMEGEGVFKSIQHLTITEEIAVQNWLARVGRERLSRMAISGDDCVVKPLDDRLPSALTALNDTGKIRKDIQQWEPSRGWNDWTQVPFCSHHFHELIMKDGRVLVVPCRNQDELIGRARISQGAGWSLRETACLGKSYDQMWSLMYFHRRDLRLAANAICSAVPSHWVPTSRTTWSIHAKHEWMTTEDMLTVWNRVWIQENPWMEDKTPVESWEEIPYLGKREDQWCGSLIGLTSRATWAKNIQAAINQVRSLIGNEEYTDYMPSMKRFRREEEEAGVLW

O=C(CN1CC(=O)Oc2ccccc21)NCc1ccco1
IC50 [1]: 6.58 µM (active)

Cc1ccc(S(=O)(=O)N2[C@@H](c3ccc(C(C)(C)C)cc3)C(C(=O)O)=CC[C@H]2c2ccc(Cl)cc2)cc1
IC50 [2]: 10.9 µM (active)
IC50 [3]: 39.6 µM (active)
IC50 [4]: 11.3 µM (active)
CC50 [5]: > 40 µM (active)

CCOC(=O)C1(CC2CC2)CCN(Cc2ccc(O)c(Cl)c2)CC1
EC50 [6]: 0.841 µM (active)
EC50 [7]: 0.376 µM (active)

OC1(c2ccccc2)C[N+](c2ccccc2)=C2SCCN21 (centres undefined)
EC50 [6]: 1.88 µM (active)
EC50 [7]: 1.5 µM (active)

Cc1ccc(COC(=O)c2cc([N+](=O)[O-])ccc2N2CCOCC2)cc1
EC50 [8]: 0.529 µM (inconclusive)
IC50 [2]: 10.3 µM (active)
EC50 [9]: 0.223 µM (active)
IC50 [4]: 9.01 µM (active)
IC50 [10]: > 80 µM (inactive)
EC50 [11]: 0.127 µM (inconclusive)
EC50 [12]: 11 µM (inconclusive)

COc1ccc(C(C)(C)C)cc1NC(=O)Nc1ccc2c(c1)OCO2
AC50 [13]: 6.11 µM (active)
AC50 [14]: 7.91 µM (active)

COc1ccc(Br)cc1C(C[N+](=O)[O-])c1c(N)n(C)c(=O)n(C)c1=O (centres undefined)
CC50 [15]: 10.5 µM (active)
AC50 [16]: 8.73 µM (active)
AC50 [13]: 3.46 µM (active)

COc1ccc(N2CCN(C(=O)c3cccc(Cn4cc(Cl)cn4)c3)CC2)cc1
IC50 [1]: > 100 µM (active)

CCOc1ccccc1NS(=O)(=O)c1ccc(-c2cnc(C3CC3)o2)cc1
IC50 [10]: > 80 µM (inactive)

O=C(COC(=O)CCN1C(=O)/C(=C\C=C\c2ccccc2)SC1=S)Nc1cc(F)ccc1F
AC50 [16]: 7.49 µM (active)
IC50 [17]: 26.4 µM (active)

Cc1cc(C)cc(Nc2c([N+](=O)[O-])nn(-c3ccc(Cl)cc3)[n+]2[O-])c1
IC50 [1]: > 100 µM (active)
EC50 [18]: > 60 µM (not active)
EC50 [19]: 0.387 µM (active)

Cc1ccc(NS(=O)(=O)c2ccc(N3CCN(c4ccc(O)cc4)CC3)c([N+](=O)[O-])c2)c(C)c1
AC50 [14]: 4.4 µM (active)
